Experimental data: patent US11903917B2, “MEK-inhibitor for the treatment of viral and bacterial infections” (priority 2017, dated 2024)
“And” between values parts separate entries of the source, which are not always exact repeats. Equal entries are not always repeated.

Tests used:
[1] = system: A549 cells infected with influenza virus (IV) and S. aureus 6850; assay: Example 8: cytopathic effect in A549 cells infected with influenza virus and S. aureus 6850, light microscopy; assay type: cell-based, human; settings: 10 μM, until 24 h p.i., super-infection
Description: Influenza virus (IV) infection results in enhanced expression of antiviral cytokines, most importantly type I IFNs that activate critical downstream antiviral responses and may also potentiate subsequent bacterial infections. […] Specifically, A549 cells were pre-treated for 1 h with 10 μM of the specific MEK-inhibitor PD-0184264 or DMSO as solvent control. Afterwards, cells were rinsed with PBS and infected with influenza virus (IV) (MOI as indicated) for 30 min at 37° C., 5% CO2. Subsequently, cells were washed with PBS and infected with S. aureus 6850 (MOI as indicated) in the presence or absence of the inhibitor for 3 h. To avoid bacterial over-growth, an antibiotic wash step with lysostaphin (2 μg/mL) was performed for 20 min at 37° C. to remove not-internalized bacteria. Then, cells were washed once and were further incubated until 24 h p.i. in the presence of the inhibitor or solvent. At the end of the incubation period, the cell monolayer was analyzed via light microscopy.

[2] = WST-Assay (cell viability); assay type: cell-based; settings: human, A549 cells, FIG. 17C
Description: A549 cells were seeded in a 96-well flat-bottom tissue plate (Greiner, Germany) and were grown overnight. […] Thereafter, 10 μl WST-1 reagent (Roche, Germany) was added to the culture medium and incubated for four hours. During this time, the stable tetrazolium salt WST-1 was cleaved to a soluble formazan by metabolically active cells in the culture. After this incubation period, the formazan dye formed was quantitated with ELISA reader at 405 nm. The measured absorbance directly correlated to the number of viable cells.

[3] = system: influenza A virus strain RB1 [A/Regensburg/D6/09 (H1N1 pdm09)]; assay: Progeny virus inhibition assay in A549 cells; assay type: cell-based
S. aureus 6850 = assay: Time-of-addition assay, bacterial titers at 0, 3 and 6 h, then medium exchange; assay type: cell-based, Staphylococcus aureus
S. aureus strain 6850 = assay: Bacterial growth under heat stress (42° C., 6 h) after inhibitor treatment; assay type: cell-based, Staphylococcus aureus; settings: 20 μM over night, then 42° C. for 6 h, strain 6850, vs solvent
Description: (§1) As the kinase is known to play an important role in bacterial stress resistance, bacterial growth under heat stress was monitored after treatment of the bacteria with the inhibitor PD-0184264. S. aureus strain 6850 and MRSA strain USA300 were treated over night with either solvent or 20 μM of the PD-0184264. The next day subcultures with the same amount of bacteria were prepared (confirmed by OD600 and plating on BHI agar) and further incubated at 42° C. for 6 h. Bacterial titers were then calculated via plating of serial dilutions on BHI agar plates. […] This is both observed for the methicillin-sensitive strain 6850 (black bars) as well as for the MRSA strain USA300 (grey bars). Impaired stress tolerance in the presence of the inhibitor is another indication that PD-0184264 directly targets the kinase PknB, which is an important mediator of stress resistance. In summary, the data provide strong circumstantial evidence, that PD-0184264 elicits its antibacterial action by inhibition of the bacterial kinase PknB.

MRSA strain USA300 = assay: as above; assay type: cell-based, Staphylococcus aureus; settings: 20 μM over night, then 42° C. for 6 h, MRSA USA300, vs solvent
Description: as §1

Bacillus subtilis = assay: Bacterial load of B. subtilis after 18 h (OD600, plating); assay type: cell-based
Description: Specifically, to test for a potential antibacterial effect on B. subtilis, over-night cultures of B. subtilis were incubated with either solvent or different concentrations of the MEK inhibitor PD-0184264 (as indicated) for 18 h. Afterwards, bacterial load was determined via measurement of the OD600 and plating of serial dilutions on BHI agar plates. Data shown in FIG. 11 represent means+SD of three independent experiments.

[4] = Pharmacokinetics, drug in plasma after i.v. or per os application; assay type: in vivo, NMRI mice
Description: Blood was collected at 15 min, 30 min, 1 h, 2 h, 4 h, 6 h, 8 h and 24 h (test day 2) after administration and plasma was analysed for the presence of the drug. […] Blood was collected at 15 min, 30 min, 1 h, 2 h, 4 h, 6 h, 8 h and 24 h (test day 2) after administration and plasma was analysed for the presence of the drug. Each data point represents the mean value of three plasma samples. Graphpad Prism 7 software was used to illustrate both figures.
34.88 mg PD-0184264 were dissolved in 0.075 ml DMSO and further diluted with 0.225 ml Cremophor EL/2.7 ml PBS. […] 81.0 mg PD-0184264 were dissolved in 0.2 ml DMSO/0.6 ml Cremophor EL/3.2 ml PBS.
Eight week old male NMRI mice (Charles River Laboratories, Germany) with a body weight of 23.9-36.5 g at administration were used for pharmacokinetic studies. The animals were normally fed. Drinking water was available ad libitum.
Experiments were performed at LPT GmbH (Hamburg, Germany). Sufficient whole blood—taken under isoflurane anaesthesia—was collected to obtain at least 2×100 μl Li-Heparin plasma of 3 animals per group and time-point at the following times: 0 (predose), 15 min, 30 min, 1 h, 2 h, 4 h, 6 h, 8 h and 24 h (test day 2) after administration. The whole blood samples were instantly cooled using an Iso-Therm-Rack system (Eppendorf AG, Germany) until centrifugation within 0.5 hours after withdrawal. Immediately after centrifugation, the samples were stored at −20° C. until further analysis. Plasma analysis was performed using standard procedures at Prolytic GmbH (Frankfurt, Germany).
Drugs were either administrated using a single dosing on test day 1 by oral gavage or by Intravenous bolus injection into a tail vein. The Injection speed was 15 s/dose with an administration volume of 200 μl.

O=C(O)c1ccc(F)c(F)c1Nc1ccc(I)cc1Cl [PD-0184264, 2-(2-chloro-4-iodophenylamino)-N-3,4-difluoro benzoic acid]
cytopathic effect (CPE) [1]: completely abolished | CC50 at 24 h [2]: > 1580 µM | reduction of progeny virus [3]: almost no reduction | reduction of virus titer [3]: 98.87±0.03% and 91.50±2.08% and 58.97±4.45% | fold higher EC50 value compared to the EC50 value of CI-1040 ([3]; CI-1040 value from Haasbach et al. 2017): 31 fold | EC50 ([3]; Influenza A virus, H1N1, RB1 on A549 cells, FIG. 17B): 0.804 µM | S.I. (selectivity index) ([3]; against RB1 on A549 cells): 1960 | fold higher concentration needed to achieve similar reduction of progeny influenza virus as 10 μM CI-1040 ([3]; in vitro, A549): ~10 fold | inhibition of bacterial growth, compared with U0126 and gentamicin (0.5 or 2 μg/ml) (S. aureus 6850; S. aureus 6850, 3 h and 6 h post inoculation): strongest inhibition of bacterial growth | mode of antibacterial action after medium exchange (S. aureus 6850; cultures further incubated without substances reached turbidity of solvent culture): bacteriostatic rather than a bactericidal action | bacterial growth under heat stress (bacterial titers) (S. aureus strain 6850): strongly impaired | bacterial growth under heat stress (bacterial titers) (MRSA strain USA300): strongly impaired | viable bacterial counts (Bacillus subtilis; 10 μM): strong decrease in viable bacterial counts | viable bacterial counts (Bacillus subtilis; concentrations higher than 10 μM): complete abolishment | drug in plasma at eight hours ([4]; 150 mg/kg per os application): still a high concentration | AUC ([4]; mouse, plasma, iv, male NMRI mice, route of this value not stated (75 mg/kg i.v. / 150 mg/kg per os)): 1950 µg·h/mL
